According to ChEMBL document CHEMBL3046555, “Synthesis and Microbiological Evaluation of Novel [N-Acetyl-2,6-Diarylpiperidin-4-YL]-5-Spiro-4-Acetyl-2-(Acetylamino)-2-1,3,4-Thiadiazolines” (2004):
Converted amounts (≈) assume the structure as drawn. The source made the active and inactive calls. The rule behind the calls is not given here.

Experiments:
Bacillus subtilis = assay: Antibacterial activity against Bacillus subtilis after 24 hr by two-fold serial dilution method; format: functional
Klebsiella pneumoniae [1] = assay: Antibacterial activity against Klebsiella pneumoniae after 24 hr by two-fold serial dilution method; format: functional
Aspergillus flavus [2] = assay: Antifungal activity against Aspergillus flavus at 100 ug/ml after 72 to 96 hr by two-fold serial dilution method; format: functional, organism-based
Aspergillus niger = assay: Antifungal activity against Aspergillus niger after 72 to 96 hr by two-fold serial dilution method; format: functional
Candida [3] = assay: Antifungal activity against Candida-6 after 72 to 96 hr by two-fold serial dilution method; format: functional
Escherichia coli = assay: Antibacterial activity against Escherichia coli after 24 hr by two-fold serial dilution method; format: functional
Pseudomonas aeruginosa [4] = assay: Antibacterial activity against Pseudomonas aeruginosa after 24 hr by two-fold serial dilution method; format: functional
Enterococcus faecalis [5] = assay: Antibacterial activity against Enterococcus faecalis after 24 hr by two-fold serial dilution method; format: functional
Cryptococcus neoformans [6] = assay: Antifungal activity against Cryptococcus neoformans at 100 ug/ml after 72 to 96 hr by two-fold serial dilution method; format: functional, organism-based
Candida [7] = assay: Antifungal activity against Candida-51 after 72 to 96 hr by two-fold serial dilution method; format: functional
Pseudomonas aeruginosa [8] = assay: Antibacterial activity against Pseudomonas aeruginosa at 100 ug/ml after 24 hr by two-fold serial dilution method; format: functional, organism-based
Enterococcus faecalis [9] = assay: Antibacterial activity against Enterococcus faecalis at 100 ug/ml after 24 hr by two-fold serial dilution method; format: functional, organism-based
Candida [10] = assay: Antifungal activity against Candida-51 at 100 ug/ml after 72 to 96 hr by two-fold serial dilution method; format: functional, organism-based
Klebsiella pneumoniae [11] = assay: Antibacterial activity against Klebsiella pneumoniae at 100 ug/ml after 24 hr by two-fold serial dilution method; format: functional, organism-based
Candida [12] = assay: Antifungal activity against Candida-6 at 100 ug/ml after 72 to 96 hr by two-fold serial dilution method; format: functional, organism-based
Aspergillus flavus [13] = assay: Antifungal activity against Aspergillus flavus after 72 to 96 hr by two-fold serial dilution method; format: functional
Cryptococcus neoformans [14] = assay: Antifungal activity against Cryptococcus neoformans after 72 to 96 hr by two-fold serial dilution method; format: functional

## CC(=O)NC1=NN(C(C)=O)C2(CC(c3ccc(C)cc3)N(C(C)=O)C(c3ccc(C)cc3)C2)S1 (stereo not given)
Bacillus subtilis
  MIC: 100 µg/mL (≈ 209 µM)
Klebsiella pneumoniae [1]
  MIC: 100 µg/mL (≈ 209 µM)
Aspergillus flavus [2]
  inhibition: inactive
Aspergillus niger
  MIC: 50 µg/mL (≈ 104 µM)
Candida [3]
  MIC: 50 µg/mL (≈ 104 µM)
Escherichia coli
  MIC: 100 µg/mL (≈ 209 µM)
Pseudomonas aeruginosa [4]
  MIC: 100 µg/mL (≈ 209 µM)
Enterococcus faecalis [5]
  MIC: 100 µg/mL (≈ 209 µM)
Cryptococcus neoformans [6]
  inhibition: inactive
Candida [7]
  MIC: 100 µg/mL (≈ 209 µM)

## CC(=O)NC1=NN(C(C)=O)C2(CC(c3ccccc3)N(C(C)=O)C(c3ccccc3)C2)S1 (stereo not given)
Pseudomonas aeruginosa [8]
  inhibition: inactive
Bacillus subtilis
  MIC: 100 µg/mL (≈ 222 µM)
Aspergillus flavus [2]
  inhibition: inactive
Aspergillus niger
  MIC: 100 µg/mL (≈ 222 µM)
Escherichia coli
  MIC: 50 µg/mL (≈ 111 µM)
Enterococcus faecalis [9]
  inhibition: inactive
Candida [10]
  inhibition: inactive
Cryptococcus neoformans [6]
  inhibition: inactive
Klebsiella pneumoniae [11]
  inhibition: inactive
Candida [12]
  inhibition: inactive

## CC1(C)S[C@@H]2[C@H](NC(=O)Cc3ccccc3)C(=O)N2[C@H]1C(=O)O [PENICILLIN G]
Bacillus subtilis
  MIC: 25 µg/mL (≈ 74.8 µM)
Klebsiella pneumoniae [1]
  MIC: 12.5 µg/mL (≈ 37.4 µM)
Escherichia coli
  MIC: 50 µg/mL (≈ 150 µM)
Pseudomonas aeruginosa [4]
  MIC: 50 µg/mL (≈ 150 µM)
Enterococcus faecalis [5]
  MIC: 12.5 µg/mL (≈ 37.4 µM)

## C[C@@H]1[C@H](O)[C@@H](C)/C=C/C=C/C=C/C=C/C=C/C=C/C=C/[C@H](O[C@@H]2O[C@H](C)[C@@H](O)[C@H](N)[C@@H]2O)C[C@@H]2O[C@](O)(C[C@@H](O)C[C@@H](O)[C@H](O)CC[C@@H](O)C[C@@H](O)CC(=O)O[C@H]1C)C[C@H](O)[C@H]2C(=O)O [AMPHOTERICIN B]
Aspergillus flavus [13]
  MIC: 50 µg/mL (≈ 54.1 µM)
Aspergillus niger
  MIC: 50 µg/mL (≈ 54.1 µM)
Candida [3]
  MIC: 25 µg/mL (≈ 27.1 µM)
Cryptococcus neoformans [14]
  MIC: 25 µg/mL (≈ 27.1 µM)
Candida [7]
  MIC: 25 µg/mL (≈ 27.1 µM)

## CC(=O)NC1=NN(C(C)=O)C2(CC(c3ccc(C)cc3)N(C(C)=O)C(c3ccc(C)cc3)C2C)S1 (stereo not given)
Bacillus subtilis
  MIC: 100 µg/mL (≈ 203 µM)
Klebsiella pneumoniae [1]
  MIC: 25 µg/mL (≈ 50.7 µM)
Aspergillus flavus [13]
  MIC: 100 µg/mL (≈ 203 µM)
Aspergillus niger
  MIC: 50 µg/mL (≈ 101 µM)
Candida [3]
  MIC: 50 µg/mL (≈ 101 µM)
Escherichia coli
  MIC: 50 µg/mL (≈ 101 µM)
Pseudomonas aeruginosa [4]
  MIC: 50 µg/mL (≈ 101 µM)
Enterococcus faecalis [5]
  MIC: 50 µg/mL (≈ 101 µM)
Cryptococcus neoformans [6]
  inhibition: inactive
Candida [7]
  MIC: 100 µg/mL (≈ 203 µM)

## CN[C@@H]1[C@H](O[C@H]2[C@H](O[C@H]3[C@H](O)[C@@H](O)[C@H](N=C(N)N)[C@@H](O)[C@@H]3N=C(N)N)O[C@@H](C)[C@]2(O)C=O)O[C@@H](CO)[C@H](O)[C@H]1O [STREPTOMYCIN]
Bacillus subtilis
  MIC: 12.5 µg/mL (≈ 21.5 µM)
Klebsiella pneumoniae [1]
  MIC: 25 µg/mL (≈ 43 µM)
Escherichia coli
  MIC: 12.5 µg/mL (≈ 21.5 µM)
Pseudomonas aeruginosa [4]
  MIC: 25 µg/mL (≈ 43 µM)
Enterococcus faecalis [5]
  MIC: 50 µg/mL (≈ 86 µM)

## COc1ccc(C2CC3(SC(NC(C)=O)=NN3C(C)=O)C(C)C(c3ccc(OC)cc3)N2C(C)=O)cc1 (stereo not given)
Bacillus subtilis
  MIC: 25 µg/mL (≈ 47.7 µM)
Klebsiella pneumoniae [1]
  MIC: 6.25 µg/mL (≈ 11.9 µM)
Aspergillus flavus [13]
  MIC: 25 µg/mL (≈ 47.7 µM)
Aspergillus niger
  MIC: 25 µg/mL (≈ 47.7 µM)
Candida [3]
  MIC: 50 µg/mL (≈ 95.3 µM)
Escherichia coli
  MIC: 25 µg/mL (≈ 47.7 µM)
Pseudomonas aeruginosa [4]
  MIC: 25 µg/mL (≈ 47.7 µM)
Enterococcus faecalis [5]
  MIC: 25 µg/mL (≈ 47.7 µM)
Cryptococcus neoformans [14]
  MIC: 6.25 µg/mL (≈ 11.9 µM)
Candida [7]
  MIC: 25 µg/mL (≈ 47.7 µM)

## CC(=O)NC1=NN(C(C)=O)C2(CC(c3ccccc3)N(C(C)=O)C(c3ccccc3)C2C)S1 (stereo not given)
Pseudomonas aeruginosa [8]
  inhibition: inactive
Bacillus subtilis
  MIC: 100 µg/mL (≈ 215 µM)
Aspergillus flavus [13]
  MIC: 100 µg/mL (≈ 215 µM)
Aspergillus niger
  MIC: 50 µg/mL (≈ 108 µM)
Escherichia coli
  MIC: 50 µg/mL (≈ 108 µM)
Enterococcus faecalis [5]
  MIC: 100 µg/mL (≈ 215 µM)
Candida [10]
  inhibition: inactive
Cryptococcus neoformans [6]
  inhibition: inactive
Klebsiella pneumoniae [11]
  inhibition: inactive
Candida [12]
  inhibition: inactive

## CC(=O)NC1=NN(C(C)=O)C2(CC(c3ccc(Cl)cc3)N(C(C)=O)C(c3ccc(Cl)cc3)C2C)S1 (stereo not given)
Bacillus subtilis
  MIC: 50 µg/mL (≈ 93.7 µM)
Klebsiella pneumoniae [1]
  MIC: 12.5 µg/mL (≈ 23.4 µM)
Aspergillus flavus [13]
  MIC: 50 µg/mL (≈ 93.7 µM)
Aspergillus niger
  MIC: 25 µg/mL (≈ 46.9 µM)
Candida [3]
  MIC: 25 µg/mL (≈ 46.9 µM)
Escherichia coli
  MIC: 25 µg/mL (≈ 46.9 µM)
Pseudomonas aeruginosa [4]
  MIC: 25 µg/mL (≈ 46.9 µM)
Enterococcus faecalis [5]
  MIC: 12.5 µg/mL (≈ 23.4 µM)
Cryptococcus neoformans [14]
  MIC: 12.5 µg/mL (≈ 23.4 µM)
Candida [7]
  MIC: 25 µg/mL (≈ 46.9 µM)

## COc1ccc(C2CC3(CC(c4ccc(OC)cc4)N2C(C)=O)SC(NC(C)=O)=NN3C(C)=O)cc1 (stereo not given)
Bacillus subtilis
  MIC: 25 µg/mL (≈ 49 µM)
Klebsiella pneumoniae [1]
  MIC: 12.5 µg/mL (≈ 24.5 µM)
Aspergillus flavus [13]
  MIC: 25 µg/mL (≈ 49 µM)
Aspergillus niger
  MIC: 25 µg/mL (≈ 49 µM)
Candida [3]
  MIC: 25 µg/mL (≈ 49 µM)
Escherichia coli
  MIC: 25 µg/mL (≈ 49 µM)
Pseudomonas aeruginosa [4]
  MIC: 50 µg/mL (≈ 97.9 µM)
Enterococcus faecalis [5]
  MIC: 25 µg/mL (≈ 49 µM)
Cryptococcus neoformans [14]
  MIC: 12.5 µg/mL (≈ 24.5 µM)
Candida [7]
  MIC: 50 µg/mL (≈ 97.9 µM)

## CC(=O)NC1=NN(C(C)=O)C2(CC(c3ccc(Cl)cc3)N(C(C)=O)C(c3ccc(Cl)cc3)C2)S1 (stereo not given)
Bacillus subtilis
  MIC: 50 µg/mL (≈ 96.3 µM)
Klebsiella pneumoniae [1]
  MIC: 25 µg/mL (≈ 48.1 µM)
Aspergillus flavus [13]
  MIC: 50 µg/mL (≈ 96.3 µM)
Aspergillus niger
  MIC: 25 µg/mL (≈ 48.1 µM)
Candida [3]
  MIC: 50 µg/mL (≈ 96.3 µM)
Escherichia coli
  MIC: 50 µg/mL (≈ 96.3 µM)
Pseudomonas aeruginosa [4]
  MIC: 25 µg/mL (≈ 48.1 µM)
Enterococcus faecalis [5]
  MIC: 25 µg/mL (≈ 48.1 µM)
Cryptococcus neoformans [14]
  MIC: 25 µg/mL (≈ 48.1 µM)
Candida [7]
  MIC: 50 µg/mL (≈ 96.3 µM)
